The results in this text go back to ChEMBL document CHEMBL4004876, “Preliminary SAR on indole-3-carbinol and related fragments reveals a novel anticancer lead compound against resistant glioblastoma cells” (Bioorg Med Chem Lett, 2017).

Some results are limits rather than exact numbers.

One assay relates to U-251. The experiment in a line: Cytotoxicity against human U251 cells assessed as decrease in cell proliferation after 72 hrs by SRB assay. In kind it is functional, cell-based. The conditions noted are these: U-251, 72 h. In general terms: Sulforhodamine B stains cellular protein and so reports cell mass.
Assay [1] in a line: Cytotoxicity against human IN1528 cells assessed as decrease in cell proliferation after 72 hrs by SRB assay. It counts as functional, cell-based. Particulars: IN1528, 72 h.
Assay [2] can be described thus: Cytotoxicity against human IN1760 cells assessed as decrease in cell proliferation after 72 hrs by SRB assay. In kind it is functional, cell-based. The conditions noted are these: IN1760, 72 h.
Assay [3] can be described thus: Cytotoxicity against human U87 cells assessed as decrease in cell proliferation after 72 hrs by SRB assay. It counts as functional, cell-based, U-87MG ATCC. Particulars: U-87 MG.
The nature of assay [4]: Cytotoxicity against human IN1472 cells assessed as decrease in cell proliferation after 72 hrs by SRB assay. The conditions noted are these: IN1472, 72 h. It counts as functional, cell-based.

The term EC50 denotes the midpoint of the concentration-response curve.

For the molecule `CC(=O)n1cc(CO)c2ccccc21`, the EC50 in the assay on U-251 is 1760 µM; in assay [1] it was 5820 µM; in assay [2] it was > 10000 µM.
Take `CC(=O)n1c(-c2ccccc2)c(CO)c2ccccc21`: the concentration for a half-maximal effect (EC50) was 600 µM with U-251, > 10000 µM in assay [1] and > 10000 µM in assay [2].
For the molecule `Cc1ccc(S(=O)(=O)n2cc(CO)c3ccccc32)cc1`, the concentration for a half-maximal effect (EC50) with U-251 turned out to be 140 µM; in assay [1], 440 µM; in assay [2], 650 µM.
Take `OCc1csc2ccccc12`: the EC50 turned out to be 1240 µM in the assay with U-251, 3990 µM in assay [1] and 1080 µM in assay [2].
Regarding `c1ccc(-c2[nH]c3ccccc3c2Cc2c(-c3ccccc3)[nH]c3ccccc23)cc1`, the EC50 amounted to 50 µM in the assay with U-251, 270 µM in assay [1] and 50 µM in assay [2].
Turning to `OCCc1c(-c2ccccc2)[nH]c2ccccc12`, the EC50 in assay [3] came to 110 µM; in the assay on U-251, 250 µM; in assay [4] it was 350 µM; in assay [1], 4 µM; in assay [2], 330 µM.
For `OCc1c(-c2ccccc2)[nH]c2ccccc12` [(2-PHENYL-1H-INDOL-3-YL)METHANOL] the same measures were 30 µM, 130 µM, 480 µM, 10 µM and 1430 µM.
As to `c1ccc2c(Cc3c[nH]c4ccccc34)c[nH]c2c1` [ARUNDINE], the EC50 with U-251 came to 280 µM; in assay [1] it was 440 µM; in assay [2], 230 µM.
Consider `OCc1c[nH]c2ccccc12` [INDOLE-3-CARBINOL], for which the EC50 stood at 290 µM in assay [3]; 390 µM with U-251; 950 µM in assay [4]; 119 µM in assay [1]; 1580 µM in assay [2].
For `OCCc1c[nH]c2ccccc12` [TRYPTOPHOL] the same measures were 580 µM, 1220 µM, 1950 µM, 1740 µM and 4570 µM.
